Test results from PubChem BioAssay (NCI).
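All cell lines were grown in 96-well plates and treated with compound for 48 hours. At the TGI there is no net growth.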

How the values were obtained:
Assay in all cases: growth of human tumour cells (NCI), 48 h
[1] = tested on: MDA-MB-435
[2] = tested on: PC-3 prostate
[3] = tested on: HL-60(TB) leukemia
[4] = tested on: A498 renal
[5] = tested on: HCC-2998 colon
[6] = tested on: MOLT-4 leukemia
[7] = tested on: RXF 393 renal
[8] = tested on: MCF7 breast
[9] = tested on: SK-OV-3 ovarian
[10] = tested on: OVCAR-3 ovarian
[11] = tested on: SR leukemia
[12] = tested on: SK-MEL-28 melanoma
[13] = tested on: TK-10 renal
[14] = tested on: K-562 leukemia
[15] = tested on: SN12C renal
[16] = tested on: UO-31 renal
[17] = tested on: T-47D breast
[18] = tested on: SK-MEL-2 melanoma
[19] = tested on: SF-268 CNS
[20] = tested on: U251 CNS
[21] = tested on: M14 melanoma
[22] = tested on: OVCAR-4 ovarian
[23] = tested on: HOP-62 NSCLC
[24] = tested on: DU-145 prostate
[25] = tested on: HS 578T breast
[26] = tested on: SK-MEL-5 melanoma
[27] = tested on: NCI-H460 lung
[28] = tested on: A549 NSCLC
[29] = tested on: BT-549 breast
[30] = tested on: HCT-116 colon
[31] = tested on: LOX IMVI melanoma
[32] = tested on: HT29 colon
[33] = tested on: SW-620 colon
[34] = tested on: COLO 205 colon
[35] = tested on: HCT-15 colon
[36] = tested on: NCI-H23 lung
[37] = tested on: CCRF-CEM leukemia
[38] = tested on: OVCAR-8 ovarian
[39] = tested on: MALME-3M melanoma
[40] = tested on: MDA-MB-231 breast
[41] = tested on: SF-295 CNS
[42] = tested on: IGROV1 ovarian
[43] = tested on: NCI/ADR-RES ovarian
[44] = tested on: UACC-62 melanoma
[45] = tested on: MDA-N
[46] = tested on: NCI-H226 lung
[47] = tested on: SNB-75 CNS
[48] = tested on: UACC-257 melanoma
[49] = tested on: SF-539 CNS
[50] = tested on: CAKI-1 renal
[51] = tested on: HOP-92 NSCLC
[52] = tested on: EKVX NSCLC
[53] = tested on: OVCAR-5 ovarian
[54] = tested on: 786-0 renal
[55] = tested on: KM12 colon
[56] = tested on: ACHN renal
[57] = tested on: RPMI-8226 leukemia
[58] = tested on: SNB-19 CNS
[59] = tested on: NCI-H522 lung

O=c1cc(-c2cc(O)c(O)c(-c3c(O)cc4oc(-c5ccc(O)c(O)c5)cc(=O)c4c3O)c2)oc2cc(O)cc(O)c12
TGI [1]: > 25 µM
TGI [2]: > 25 µM
TGI [3]: > 25 µM
TGI [4]: > 25 µM
TGI [5]: > 25 µM
TGI [6]: > 25 µM
TGI [7]: > 25 µM
TGI [8]: > 25 µM
TGI [9]: > 25 µM
TGI [10]: > 25 µM
TGI [11]: > 25 µM
TGI [12]: > 25 µM
TGI [13]: > 25 µM
TGI [14]: > 25 µM
TGI [15]: > 25 µM
TGI [16]: > 25 µM
TGI [17]: > 25 µM
TGI [18]: > 25 µM
TGI [19]: > 25 µM
TGI [20]: > 25 µM
TGI [21]: > 25 µM
TGI [22]: > 25 µM
TGI [23]: > 25 µM
TGI [24]: > 25 µM
TGI [25]: > 25 µM
TGI [26]: > 25 µM
TGI [27]: > 25 µM
TGI [28]: > 25 µM
TGI [29]: > 25 µM
TGI [30]: > 25 µM
TGI [31]: > 25 µM
TGI [32]: > 25 µM
TGI [33]: > 25 µM
TGI [34]: > 25 µM
TGI [35]: > 25 µM
TGI [36]: > 25 µM
TGI [37]: > 25 µM
TGI [38]: > 25 µM
TGI [39]: > 25 µM
TGI [40]: > 25 µM
TGI [41]: > 25 µM
TGI [42]: > 25 µM
TGI [43]: > 25 µM
TGI [44]: > 25 µM
TGI [45]: > 25 µM
TGI [46]: > 25 µM
TGI [47]: > 25 µM
TGI [48]: > 25 µM
TGI [49]: > 25 µM
TGI [50]: > 25 µM
TGI [51]: > 25 µM
TGI [52]: > 25 µM
TGI [53]: > 25 µM

COc1ccc(-c2cc(-c3ccccc3)[nH]c(=S)c2C#N)cc1
TGI [1]: 42.8 µM
TGI [2]: > 100 µM
TGI [3]: > 100 µM
TGI [4]: 60.2 µM
TGI [54]: 86.3 µM
TGI [5]: > 100 µM
TGI [6]: > 100 µM
TGI [7]: > 100 µM
TGI [8]: > 100 µM
TGI [9]: 93.6 µM
TGI [55]: > 100 µM
TGI [10]: 38.3 µM
TGI [11]: > 100 µM
TGI [12]: 58.7 µM
TGI [13]: > 100 µM
TGI [14]: > 100 µM
TGI [15]: > 100 µM
TGI [16]: 45.7 µM
TGI [17]: 94.3 µM
TGI [19]: > 100 µM
TGI [20]: 54.4 µM
TGI [21]: 94 µM
TGI [22]: > 100 µM
TGI [56]: > 100 µM
TGI [57]: 51.7 µM
TGI [23]: 24.2 µM
TGI [24]: > 100 µM
TGI [25]: > 100 µM
TGI [26]: 34.3 µM
TGI [27]: 81.7 µM
TGI [58]: > 100 µM
TGI [28]: 37.9 µM
TGI [29]: > 100 µM
TGI [30]: > 100 µM
TGI [31]: > 100 µM
TGI [32]: > 100 µM
TGI [33]: > 100 µM
TGI [59]: > 100 µM
TGI [35]: > 100 µM
TGI [36]: 52.3 µM
TGI [37]: > 100 µM
TGI [38]: 90.5 µM
TGI [39]: > 100 µM
TGI [40]: > 100 µM
TGI [41]: > 100 µM
TGI [42]: > 100 µM
TGI [43]: > 100 µM
TGI [44]: 46.2 µM
TGI [45]: > 100 µM
TGI [46]: 96.2 µM
TGI [47]: 88.1 µM
TGI [50]: > 100 µM
TGI [51]: 98.3 µM
TGI [52]: > 100 µM
TGI [53]: > 100 µM
